The source of these data is patent EP0297523A2, “Process for the preparation of elaiophyline and the use thereof” (HOECHST AKTIENGESELLSCHAFT, priority 1987, dated 1989).

The structures appear in SMILES notation.

One experiment has as its system Haemonchus contortus. Description: Anthelmintic effect in artificially infected lambs (abomasal nematodes), coproscopy and necropsy. The format is in vivo. Conditions: up to 14 days after application. The method, then:
(§1) Die anthelminthische Wirkung vom Elaiophylin wurde an Lämmern mit 30 - 40 kg Körpergewicht untersucht. Dazu wurden die Lämmer artifiziell mit Infektionsstadien von Labmagen- (Haemonchus contortus) und Dünndarm-(Trichostrongylus colubriformis) Nematoden infiziert. Nach Abschluß der Entwicklungszeit (Präpatenzperiode) der Nematoden erfolgte die Applikation von Elaiophylin in Dosierungen von 2,5, 5,0 und 10,0 mg/kg (p.o.) bzw. 2,5 mg/kg (subcutan).
(§2) Durch koproskopische Untersuchungen vor und bis zu 14 Tagen nach der Applikation des Elaiophylins und anschließende Sektion mit helminthologischer Aufarbeitung wurde die prozentuale Reduktion der Schaf-Nematoden ermittelt (s. Tab. 1). Tabelle 1

The subject of experiment [1] is Trichostrongylus colubriformis. Description: Anthelmintic effect in artificially infected lambs (small intestine nematodes), coproscopy and necropsy. In kind it is in vivo. Conditions: up to 14 days after application. The method, then: as §1, §2

On to `CC[C@@H]1[C@@H](C)O[C@@](O)([C@@H](C)[C@H](O)[C@H](C)[C@H]2OC(=O)/C=C/C=C/[C@H](C)[C@@H]([C@@H](C)[C@@H](O)[C@H](C)[C@@]3(O)C[C@@H](O[C@H]4C[C@H](O)[C@H](O)[C@H](C)O4)[C@H](CC)[C@@H](C)O3)OC(=O)/C=C/C=C/[C@@H]2C)C[C@H]1O[C@H]1C[C@H](O)[C@H](O)[C@H](C)O1` [Elaiophylin], for which the “proz. Reduktion der Nematoden H. contortus” value with Haemonchus contortus (lambs 30 - 40 kg, 2,5 mg p.o.) was 44,6%; in the experiment with Haemonchus contortus (lambs 30 - 40 kg, 2,5 mg s.c.), 46,5%; in the experiment with Haemonchus contortus (lambs 30 - 40 kg, 5,0 mg p.o.), 89,3%; in the experiment on Haemonchus contortus (lambs 30 - 40 kg, 10,0 mg p.o.), 85,0%. Besides, the “proz. Reduktion der Nematoden T. colubriformis” value in experiment [1] (lambs 30 - 40 kg, 2,5 mg p.o.) was 28,4%; in experiment [1] (lambs 30 - 40 kg, 2,5 mg s.c.), 35,1%; in experiment [1] (lambs 30 - 40 kg, 5,0 mg p.o.) it was 73,8%; in experiment [1] (lambs 30 - 40 kg, 10,0 mg p.o.), 73,8%.
